Measurements taken from PubChem BioAssay AID1963425 (Molecular Pharmacology Branch, DTP, NCI, 2024).
Several values for one entry are separate records, joined by “and”; a condition that tells them apart may be missing. Equal entries are not always repeated.

Tested on: 323965-272-R-J2-PDC complex spheroid growth, % test/control
Assay: Anticancer human tumor 323965-272-R-J2-PDC patient-derived pancreatic carcinoma cell line growth inhibition [Asc]
Settings: for viability, T/C: stronger effect = lower value
Procedure, shortened: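 Complex solid-tumor spheroids incorporating human endothelial and mesenchymal stem cells received single agents or combinations over half-log dilution ranges anchored to clinical Cmax.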

[1] = curve of first compound, second compound 0.0316 µM
[2] = curve of first compound, second compound 0.1 µM
[3] = curve of first compound, second compound 0.316 µM
[4] = curve of first compound, second compound 1 µM
[5] = curve of first compound, second compound 3.16 µM
[6] = curve of first compound, second compound 10 µM
[7] = second compound 0.0316 µM, first compound 0.0316 µM
[8] = second compound 0.0316 µM, first compound 0.1 µM
[9] = second compound 0.0316 µM, first compound 0.316 µM
[10] = second compound 0.0316 µM, first compound 1 µM
[11] = second compound 0.1 µM, first compound 0.0316 µM
[12] = second compound 0.1 µM, first compound 0.1 µM
[13] = second compound 0.1 µM, first compound 0.316 µM
[14] = second compound 0.1 µM, first compound 1 µM
[15] = second compound 0.316 µM, first compound 0.0316 µM
[16] = second compound 0.316 µM, first compound 0.1 µM
[17] = second compound 0.316 µM, first compound 0.316 µM
[18] = second compound 0.316 µM, first compound 1 µM
[19] = second compound 1 µM, first compound 0.0316 µM
[20] = second compound 1 µM, first compound 0.1 µM
[21] = second compound 1 µM, first compound 0.316 µM
[22] = second compound 1 µM, first compound 1 µM
[23] = second compound 3.16 µM, first compound 0.0316 µM
[24] = second compound 3.16 µM, first compound 0.1 µM
[25] = second compound 3.16 µM, first compound 0.316 µM
[26] = second compound 3.16 µM, first compound 1 µM
[27] = second compound 10 µM, first compound 0.0316 µM
[28] = second compound 10 µM, first compound 0.1 µM
[29] = second compound 10 µM, first compound 0.316 µM
[30] = second compound 10 µM, first compound 1 µM
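Further: compound exposure lasted 7 days starting three days after spheroid seeding.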
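Wherever viability, T/C is given: 100% = DMSO vehicle control wells with viability set relative to vehicle.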

COc1c(OCCCN2CCOCC2)ccc2c3n(c(=NC(=O)c4cnc(N)nc4)nc12)CCN3 + CCN1C(C(=O)NC23CCC(C(=O)O)(CC2)CC3)C(c2cccc(Cl)c2F)C2(C(=O)Nc3cc(Cl)ccc32)C12CCCCC2
IC50 (curve of first compound, second compound 0.00949 µM): 0.151 µM
IC50 (curve of first compound, second compound 0.03 µM): 0.13 µM
IC50 (curve of first compound, second compound 0.0949 µM): 0.13 µM
IC50 (curve of first compound, second compound 0.3 µM): 0.133 µM
IC50 (curve of first compound, second compound 0.949 µM): 0.138 µM
IC50 (curve of first compound, second compound 3 µM): 0.102 µM
viability, T/C (second compound 0.00949 µM, first compound 0.00316 µM): 96%
viability, T/C (second compound 0.00949 µM, first compound 0.01 µM): 97.7%
viability, T/C (second compound 0.00949 µM, first compound 0.0316 µM): 70.7%
viability, T/C (second compound 0.00949 µM, first compound 0.1 µM): 62.5%
viability, T/C (second compound 0.00949 µM, first compound 0.316 µM): 34.2%
viability, T/C (second compound 0.00949 µM, first compound 1 µM): 25.7%
viability, T/C (second compound 0.03 µM, first compound 0.00316 µM): 103%
viability, T/C (second compound 0.03 µM, first compound 0.01 µM): 96.4%
viability, T/C (second compound 0.03 µM, first compound 0.0316 µM): 73.3%
viability, T/C (second compound 0.03 µM, first compound 0.1 µM): 52.2%
viability, T/C (second compound 0.03 µM, first compound 0.316 µM): 42.2%
viability, T/C (second compound 0.03 µM, first compound 1 µM): 30.4%
viability, T/C (second compound 0.0949 µM, first compound 0.00316 µM): 97%
viability, T/C (second compound 0.0949 µM, first compound 0.01 µM): 85.6%
viability, T/C (second compound 0.0949 µM, first compound 0.0316 µM): 78.5%
viability, T/C (second compound 0.0949 µM, first compound 0.1 µM): 50.7%
viability, T/C (second compound 0.0949 µM, first compound 0.316 µM): 38.4%
viability, T/C (second compound 0.0949 µM, first compound 1 µM): 25.5%
viability, T/C (second compound 0.3 µM, first compound 0.00316 µM): 101%
viability, T/C (second compound 0.3 µM, first compound 0.01 µM): 89.2%
viability, T/C (second compound 0.3 µM, first compound 0.0316 µM): 69.8%
viability, T/C (second compound 0.3 µM, first compound 0.1 µM): 56.3%
viability, T/C (second compound 0.3 µM, first compound 0.316 µM): 36.6%
viability, T/C (second compound 0.3 µM, first compound 1 µM): 27.6%
viability, T/C (second compound 0.949 µM, first compound 0.00316 µM): 99.7%
viability, T/C (second compound 0.949 µM, first compound 0.01 µM): 82.7%
viability, T/C (second compound 0.949 µM, first compound 0.0316 µM): 70.3%
viability, T/C (second compound 0.949 µM, first compound 0.1 µM): 51%
viability, T/C (second compound 0.949 µM, first compound 0.316 µM): 42.3%
viability, T/C (second compound 0.949 µM, first compound 1 µM): 30.1%
viability, T/C (second compound 3 µM, first compound 0.00316 µM): 89.4%
viability, T/C (second compound 3 µM, first compound 0.01 µM): 82.4%
viability, T/C (second compound 3 µM, first compound 0.0316 µM): 63.9%
viability, T/C (second compound 3 µM, first compound 0.1 µM): 49.6%
viability, T/C (second compound 3 µM, first compound 0.316 µM): 38.5%
viability, T/C (second compound 3 µM, first compound 1 µM): 26%

O=C(c1ccc(F)c(F)c1Nc1ccc(I)cc1F)N1CC(O)([C@@H]2CCCCN2)C1
viability, T/C (compound 0.00316 µM): 106% and 101% and 88.5%
viability, T/C (compound 0.01 µM): 82.5% and 96.7% and 83.5%
viability, T/C (compound 0.0316 µM): 87% and 76.1% and 79%
viability, T/C (compound 0.1 µM): 62.9% and 59.7% and 52.5%
viability, T/C (compound 0.316 µM): 34.9% and 34.5% and 31.9%
viability, T/C (compound 1 µM): 19.6% and 20.1% and 18.8%
IC50 (curve of compound): 0.176 µM and 0.149 µM and 0.123 µM

C=C(F)C(=O)N1CCN(c2nc(OCC3CCCN3C)nc3c2CCN(c2cccc4cccc(Cl)c24)C3)CC1CC#N (stereo not drawn) + Cc1c(S(C)(=O)=O)c(-c2cc(F)cc(N3CCN(c4ccc(NS(=O)(=O)c5ccc(NC(CCN6CCC(C(=O)OCCCP(=O)(O)O)CC6)CSc6ccccc6)c(S(=O)(=O)C(F)(F)F)c5)cc4)CC3)c2)c(-c2ccc(Cl)cc2)n1C(C)C
IC50 [1]: 4.34 µM
IC50 [2]: 4.22 µM
IC50 [3]: 3.72 µM
IC50 [4]: 3.41 µM
IC50 [5]: < 0.0316 µM
IC50 [6]: < 0.0316 µM
viability, T/C [7]: 70.5%
viability, T/C [8]: 62.3%
viability, T/C [9]: 59.3%
viability, T/C [10]: 62.1%
viability, T/C (second compound 0.0316 µM, first compound 3.16 µM): 75%
viability, T/C (second compound 0.0316 µM, first compound 10 µM): 8.41%
viability, T/C [11]: 69.7%
viability, T/C [12]: 61.2%
viability, T/C [13]: 60.1%
viability, T/C [14]: 66.7%
viability, T/C (second compound 0.1 µM, first compound 3.16 µM): 72.2%
viability, T/C (second compound 0.1 µM, first compound 10 µM): 2.28%
viability, T/C [15]: 62.3%
viability, T/C [16]: 52.4%
viability, T/C [17]: 54.4%
viability, T/C [18]: 62.2%
viability, T/C (second compound 0.316 µM, first compound 3.16 µM): 60.1%
viability, T/C (second compound 0.316 µM, first compound 10 µM): 0.32%
viability, T/C [19]: 56%
viability, T/C [20]: 50.8%
viability, T/C [21]: 51.3%
viability, T/C [22]: 55.1%
viability, T/C (second compound 1 µM, first compound 3.16 µM): 54.1%
viability, T/C (second compound 1 µM, first compound 10 µM): 0.2%
viability, T/C [23]: 51.4%
viability, T/C [24]: 41.2%
viability, T/C [25]: 45%
viability, T/C [26]: 41.8%
viability, T/C (second compound 3.16 µM, first compound 3.16 µM): 36.8%
viability, T/C (second compound 3.16 µM, first compound 10 µM): 0.16%
viability, T/C [27]: 44.1%
viability, T/C [28]: 43.5%
viability, T/C [29]: 34.5%
viability, T/C [30]: 41.4%
viability, T/C (second compound 10 µM, first compound 3.16 µM): 34.4%
viability, T/C (second compound 10 µM, first compound 10 µM): 0.16%

CNC(C)C(=O)NC1CN(S(=O)(=O)c2cccc(S(=O)(=O)N3CCC4CCC(C(=O)NC(c5ccccc5)c5ccccc5)N4C(=O)C(NC(=O)C(C)NC)C3)c2)CCC2CCC(C(=O)NC(c3ccccc3)c3ccccc3)N2C1=O (stereo not drawn) + Cc1c(S(C)(=O)=O)c(-c2cc(F)cc(N3CCN(c4ccc(NS(=O)(=O)c5ccc(NC(CCN6CCC(C(=O)OCCCP(=O)(O)O)CC6)CSc6ccccc6)c(S(=O)(=O)C(F)(F)F)c5)cc4)CC3)c2)c(-c2ccc(Cl)cc2)n1C(C)C
IC50 [1]: > 1 µM
IC50 [2]: > 1 µM
IC50 [3]: 0.878 µM
IC50 [4]: 0.745 µM
IC50 [5]: 0.569 µM
IC50 [6]: 0.324 µM
viability, T/C (second compound 0.0316 µM, first compound 0.00316 µM): 106%
viability, T/C (second compound 0.0316 µM, first compound 0.01 µM): 119%
viability, T/C [7]: 96.3%
viability, T/C [8]: 103%
viability, T/C [9]: 99.3%
viability, T/C [10]: 58.4%
viability, T/C (second compound 0.1 µM, first compound 0.00316 µM): 107%
viability, T/C (second compound 0.1 µM, first compound 0.01 µM): 96.6%
viability, T/C [11]: 98.2%
viability, T/C [12]: 107%
viability, T/C [13]: 93%
viability, T/C [14]: 54.1%
viability, T/C (second compound 0.316 µM, first compound 0.00316 µM): 96.9%
viability, T/C (second compound 0.316 µM, first compound 0.01 µM): 90.1%
viability, T/C [15]: 90.8%
viability, T/C [16]: 86.1%
viability, T/C [17]: 93.4%
viability, T/C [18]: 44.7%
viability, T/C (second compound 1 µM, first compound 0.00316 µM): 90.2%
viability, T/C (second compound 1 µM, first compound 0.01 µM): 85.7%
viability, T/C [19]: 85.7%
viability, T/C [20]: 76.7%
viability, T/C [21]: 83%
viability, T/C [22]: 38.8%
viability, T/C (second compound 3.16 µM, first compound 0.00316 µM): 79.8%
viability, T/C (second compound 3.16 µM, first compound 0.01 µM): 70.9%
viability, T/C [23]: 64%
viability, T/C [24]: 75.8%
viability, T/C [25]: 72%
viability, T/C [26]: 29%
viability, T/C (second compound 10 µM, first compound 0.00316 µM): 77.4%
viability, T/C (second compound 10 µM, first compound 0.01 µM): 80.1%
viability, T/C [27]: 65.8%
viability, T/C [28]: 59.8%
viability, T/C [29]: 57%
viability, T/C [30]: 22.6%
